What was measured:
[1] = system: Mycobacterium tuberculosis H37Rv; test: Anti-tubercular activity (MIC), susceptible H37Rv strain; assay type: cell-based; conditions: ATCC 25177 / H37Rv, MIC = minimum drug concentration inhibiting growth with no color change in the well, read-out: MIC (μg/mL) Susceptible (H37Rv)

SMILES | melting point [°C] | MIC [1] [µg/mL]
Cc1ccc2c(ccc[n+]2CC(=O)c2ccc(F)cc2)c1.[Br-] [Compound 3b, 1-(2-(4-Fluorophenyl)-2-oxoethyl)-6-methylquinolin-1-ium bromide] | 206 to 207 | 8
Cc1ccc2c(ccc[n+]2CC(=O)c2cc(C(F)(F)F)cc(C(F)(F)F)c2)c1.[Br-] [Compound 3c, 1-(2-(3,5-Bis(trifluoromethyl)phenyl)-2-oxoethyl)-6-methylquinolin-1-ium bromide] | 246 to 247 | 16
Cc1ccc2c(ccc[n+]2CC(=O)c2ccccc2[N+](=O)[O-])c1.[Br-] [Compound 3a, 6-Methyl-1-(2-(2-nitrophenyl)-2-oxoethyl)quinolin-1-ium bromide] | 218 to 219 | 32
Cc1ccc2c(ccc[n+]2CC(=O)c2ccc(Br)cc2)c1.[Br-] | 221 to 222 | 
